# Test results as given in US11535621B2, “Heterobicyclic amides as inhibitors of CD38” (Ribon Therapeutics, Inc., priority 2019, dated 2022).
# Target: Human CD38 (Homo sapiens (Human), UniProt P28907)
# Experiment: CD38 enzyme assay
# Format: biochemical
# Conditions: 2 nM CD38, NAD+ substrate, absorbance at 405 nm
# Source text: [formula] where SUBcmpd is the subtracted value for the individual compound treated well, SUBmin is the average of the subtracted values of the 4-(((1r,4r)-4-(2-methoxyethoxy)cyclohexyl)amino)-1-methyl-6-(thiazol-5-yl)quinolin-2(1H)-one positive control wells and SUBmax is the average of the subtracted values of the DMSO negative control wells.
# The % inhibition values were plotted as a function of compound concentration and the following 4-parameter fit was applied to derive the IC50 values:
# [formula] where top and bottom are normally allowed to float, but may be fixed at 100 or 0 respectively in a 3-parameter fit. The Hill Coefficient is normally allowed to float but may also be fixed at 1 in a 3-parameter fit. Y is the % inhibition and X is the compound concentration.
# Chain of Human CD38 (P28907 whole entry): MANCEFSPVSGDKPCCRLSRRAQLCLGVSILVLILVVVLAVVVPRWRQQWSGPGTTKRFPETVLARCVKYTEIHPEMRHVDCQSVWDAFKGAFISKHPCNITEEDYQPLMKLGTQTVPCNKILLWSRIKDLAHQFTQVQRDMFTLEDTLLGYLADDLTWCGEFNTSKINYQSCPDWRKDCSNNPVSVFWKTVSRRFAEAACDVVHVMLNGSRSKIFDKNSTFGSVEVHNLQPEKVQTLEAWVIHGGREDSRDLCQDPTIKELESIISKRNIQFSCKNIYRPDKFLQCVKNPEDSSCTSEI
row,IC50,SMILES
1,< 0.01 µM,O=C(Nc1ccnc(Cl)c1)c1nc(-n2ccnc2)nc2cc[nH]c12 [Example 140]
2,0.01 to 0.1 µM,"O=C(NC1CCN(CCC(F)(F)F)C1)c1nc(-n2ccnc2)nc2cc[nH]c12 (stereo not shown) [Example 67, 2-(1H-Imidazol-1-yl)-N-(1-(3,3,3-trifluoropropyl)pyrrolidin-3-yl)-5H-pyrrolo[3,2-d]pyrimidine-4-carboxamide]"
3,< 0.01 µM,"COc1ccc(NC(=O)c2nc(-n3ccnc3)nc3cc[nH]c23)nc1 [Example 84, 2-(1H-Imidazol-1-yl)-N-(5-methoxypyridin-2-yl)-5H-pyrrolo[3,2-d]pyrimidine-4-carboxamide]"
4,0.01 to 0.1 µM,CN(C)CCOCCO[C@H]1CC[C@H](NC(=O)c2nc(-n3ccnc3)nc3cc[nH]c23)CC1 [Example 133]
5,< 0.01 µM,"O=C(NC1CCCCCC1)c1nc(-n2ccnc2)nc2cc[nH]c12 [Example 92, N-Cycloheptyl-2-(1H-imidazol-1-yl)-5H-pyrrolo[3,2-d]pyrimidine-4-carboxamide]"
6,0.01 to 0.1 µM,O=C(N[C@H]1CC[C@H](N2CCCS2(=O)=O)CC1)c1nc(-n2ccnc2)nc2cc[nH]c12 [Example 178]
7,0.01 to 0.1 µM,O=C(N[C@H]1CC[C@H](F)CC1)c1nc(-n2ccnc2)nc2cc[nH]c12 [Example 168]
8,0.1 to 1 µM,"CN1CCC(NC(=O)c2nc(-n3ccnc3)nc3cc[nH]c23)C1 (stereo not shown) [Example 74, 2-(1H-Imidazol-1-yl)-N-(1-methylpyrrolidin-3-yl)-5H-pyrrolo[3,2-d]pyrimidine-4-carboxamide]"
9,< 0.01 µM,"O=C(Nc1ccccc1)c1nc(-n2ccnc2)nc2cc[nH]c12 [Example 82, 2-(1H-Imidazol-1-yl)-N-phenyl-5H-pyrrolo[3,2-d]pyrimidine-4-carboxamide]"
10,0.01 to 0.1 µM,C[C@]1(O)CC[C@H](NC(=O)c2nc(-n3ccnc3)nc3cc[nH]c23)CC1 [Example 176]
11,0.01 to 0.1 µM,"O=C(N[C@H]1CC[C@H](NCC(F)F)CC1)c1nc(-n2ccnc2)nc2ccsc12 [Example 221, N-((1r,4r)-4-(2,2-difluoroethylamino)cyclohexyl)-2-(1H-imidazol-1-yl)thieno[3,2-d]pyrimidine-4-carboxamide]"
12,0.01 to 0.1 µM,O=C(N[C@H]1CC[C@H](OC(F)(F)F)CC1)c1nc(-n2ccnc2)nc2cc[nH]c12 [Example 167]
13,< 0.01 µM,"O=C(N[C@H]1CC[C@H](C2(O)CC2)CC1)c1nc(-n2ccnc2)cc2ccsc12 [Example 263, N-((1r,4r)-4-(1-hydroxycyclopropyl)cyclohexyl)-5-(1H-imidazol-1-yl)thieno[2,3-c]pyridine-7-carboxamide]"
14,< 0.01 µM,"O=C(Nc1cccc(Cl)c1)c1nc(-n2ccnc2)nc2cc[nH]c12 [Example 88, N-(3-Chlorophenyl)-2-(1H-imidazol-1-yl)-5H-pyrrolo[3,2-d]pyrimidine-4-carboxamide]"
15,0.01 to 0.1 µM,"O=C(N[C@H]1CCCOC1)c1nc(-n2ccnc2)nc2cc[nH]c12 (single isomer, unassigned) [Example 28a]"
16,0.01 to 0.1 µM,CN(C)C(=O)CO[C@H]1CC[C@H](NC(=O)c2nc(-n3ccnc3)nc3cc[nH]c23)CC1 [Example 146]
17,0.01 to 0.1 µM,"O=C(Nc1ccc(OCCN2CCCC2)nc1)c1nc(-n2ccnc2)cc2cn[nH]c12 [Example 203, 5-(1H-imidazol-1-yl)-N-(6-(2-(pyrrolidin-1-yl)ethoxy)pyridin-3-yl)-1H-pyrazolo[3,4-c]pyridine-7-carboxamide]"
18,< 0.01 µM,"CO[C@]1(C)CC[C@@H](NC(=O)c2nc(-n3ccnc3)nc3cc[nH]c23)CC1 [Example 128a, 2-(1H-imidazol-1-yl)-N-((1r,4r)-4-methoxy-4-methylcyclohexyl)-5H-pyrrolo[3,2-d]pyrimidine-4-carboxamide]"

row,SMILES,IC50
1,"C[C@@H](O)[C@H]1CC[C@H](NC(=O)c2nc(-n3ccnc3)cc3cn[nH]c23)CC1 [Example 192b, N-((1R,4r)-4-((R)-1-hydroxyethyl)cyclohexyl)-5-(1H-imidazol-1-yl)-1H-pyrazolo[3,4-c]pyridine-7-carboxamide]",< 0.01 µM
